Assay results reported in patent US20200170244A1, “METHODS FOR PRESERVING, TRANSPORTING AND STORING LIVING BIOLOGICAL MATERIALS” (priority 2013, published 2020).
“Also recorded” adds a separate entry of the source.

Test system: keratinocytes
Assay: Effect of vanadium compounds on proliferation of keratinocytes (hair follicle culture, cell count)
Format: cell-based
Conditions: 14 days at 31° C.; for amount of proliferated keratinocytes (number of cells per ml of culture medium): 1 mg/ml in basic SFK growth serum, relative to control SFK without vanadium compound
Protocol: Method: The hair follicles were transferred to a 24-well culture disk containing dSFK with […] penicillin (Life Technologies B.V. Breda, The Netherlands) and 0.25 μg/ml streptomycin (Life Technologies B.V. Breda, The Netherlands), and placed for 14 days in a culture medium at 31° C. in a humidified atmosphere containing 5% CO2. Three different culture medium were used: • Treatment group oxovanadium (OVAN): The culture medium is a composition comprising a basic SFK growth serum (purchased from the supplier SFK, Enschede The Netherlands) supplemented with either 1 mg/ml of OVAN. • Treatment group bis (maltolato) oxovanadium (BMOV): The culture medium is a composition comprising a basic SFK growth serum (purchased from the supplier SFK, Enschede The Netherlands) supplemented with either 1 mg/ml of BMOV. • Control group: The control situation consists of a composition comprising the SFK basic growth serum but without the vanadium compounds (i.e. OVAN or BMOV).
The respective culture media were carefully removed every three days and replaced by fresh culture media. The cells remained attached to the hair follicles during this culture period. After 14 days the culture medium was removed and replaced by a 0.5 mg/ml trypsin, 0.2 mg/ml EDTA (ethylene diaminetetraacetic acid) solution (Life Technologies B.V. Breda, The Netherlands), and incubated for 5 minutes at 37° C. in this medium. After this incubation period clusters of cells were released from the hair follicles. These were harvested by centrifugation at 300 g at 4° C. for 5 minutes in a Eppendorf 5804R Centrifuge (VWR International, The Netherlands). Number of cells were counted and expressed as amount of proliferated cells per ml of culture medium.

Compound	proliferated keratinocytes, BMOV compared with OVAN (1 mg/ml each in basic SFK growth serum)	amount of proliferated keratinocytes (number of cells per ml of culture medium)
Cc1occc(=O)c1[O-].Cc1occc(=O)c1[O-].[O]=[V+2] [BMOV, bis(maltolato)oxovanadium]	more potent than OVAN; also recorded: greater number of proliferated cells relative to treatment with OVAN	significantly increased; also recorded: enhanced proliferation
oxovanadium		significantly increased; also recorded: enhanced proliferation
